Measurements: ChEMBL document CHEMBL4808217, “Design, Synthesis, and Characterization of 4-Aminoquinazolines as Potent Inhibitors of the G Protein-Coupled Receptor Kinase 6 (GRK6) for the Treatment of Multiple Myeloma” (J Med Chem, 2021)

Experiments:
[1] = molecular target: Death-associated protein kinase 3 (Homo sapiens, UniProt O43293); assay: Inhibition of recombinant human ZIPK (1 to 290 residues) using KKLNRTLSFAEPG substrate incubated for 40 mins in presence of [gamma33P]ATP by scintillation counting based radiometry assay
Chain of Death-associated protein kinase 3 (O43293 whole entry, the tested form may be a part): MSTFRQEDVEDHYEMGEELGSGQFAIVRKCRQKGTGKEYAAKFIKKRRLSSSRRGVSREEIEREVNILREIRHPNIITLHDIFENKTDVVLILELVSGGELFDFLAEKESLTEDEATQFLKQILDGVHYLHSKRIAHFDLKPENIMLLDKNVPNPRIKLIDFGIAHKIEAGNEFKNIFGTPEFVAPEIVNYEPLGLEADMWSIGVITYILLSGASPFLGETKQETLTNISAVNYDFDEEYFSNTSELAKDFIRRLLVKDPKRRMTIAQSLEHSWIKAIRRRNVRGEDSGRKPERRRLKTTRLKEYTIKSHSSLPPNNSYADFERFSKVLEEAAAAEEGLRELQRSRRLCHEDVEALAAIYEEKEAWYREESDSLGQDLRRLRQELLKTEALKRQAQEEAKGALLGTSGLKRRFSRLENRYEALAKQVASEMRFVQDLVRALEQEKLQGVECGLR

[2] = molecular target: Serine/threonine-protein kinase Chk2 (Homo sapiens, UniProt O96017); assay: Inhibition of recombinant human CHK2 (5 to end residues) using KKKVSRSGLYRSPSMPENLNRPR as substrate incubated for 40 mins in presence of [gamma-33ATP] by scintillation counting based radiometry assay
Chain of Serine/threonine-protein kinase Chk2 (O96017 whole entry): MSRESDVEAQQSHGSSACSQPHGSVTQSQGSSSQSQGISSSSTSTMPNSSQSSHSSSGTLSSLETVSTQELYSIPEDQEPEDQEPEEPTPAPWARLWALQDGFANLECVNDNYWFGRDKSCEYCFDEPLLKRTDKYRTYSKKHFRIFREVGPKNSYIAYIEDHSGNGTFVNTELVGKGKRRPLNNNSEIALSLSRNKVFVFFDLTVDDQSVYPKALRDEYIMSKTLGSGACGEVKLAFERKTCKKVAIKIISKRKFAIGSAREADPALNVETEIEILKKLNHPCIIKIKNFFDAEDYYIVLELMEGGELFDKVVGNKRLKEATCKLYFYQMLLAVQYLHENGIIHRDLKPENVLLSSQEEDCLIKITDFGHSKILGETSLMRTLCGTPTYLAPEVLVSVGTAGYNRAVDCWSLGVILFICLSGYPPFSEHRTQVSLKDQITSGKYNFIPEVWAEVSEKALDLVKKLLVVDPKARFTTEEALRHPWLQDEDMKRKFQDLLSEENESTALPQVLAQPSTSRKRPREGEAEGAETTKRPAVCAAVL

Rhodopsin kinase GRK1 = molecular target: T1, Rhodopsin kinase GRK1 (Homo sapiens, UniProt Q15835); assay: Inhibition of human GRK1 using casein as substrate in presence of [gamma33P]ATP by radiometric hotspot kinase assay
T1 sequence (Q15835 whole entry): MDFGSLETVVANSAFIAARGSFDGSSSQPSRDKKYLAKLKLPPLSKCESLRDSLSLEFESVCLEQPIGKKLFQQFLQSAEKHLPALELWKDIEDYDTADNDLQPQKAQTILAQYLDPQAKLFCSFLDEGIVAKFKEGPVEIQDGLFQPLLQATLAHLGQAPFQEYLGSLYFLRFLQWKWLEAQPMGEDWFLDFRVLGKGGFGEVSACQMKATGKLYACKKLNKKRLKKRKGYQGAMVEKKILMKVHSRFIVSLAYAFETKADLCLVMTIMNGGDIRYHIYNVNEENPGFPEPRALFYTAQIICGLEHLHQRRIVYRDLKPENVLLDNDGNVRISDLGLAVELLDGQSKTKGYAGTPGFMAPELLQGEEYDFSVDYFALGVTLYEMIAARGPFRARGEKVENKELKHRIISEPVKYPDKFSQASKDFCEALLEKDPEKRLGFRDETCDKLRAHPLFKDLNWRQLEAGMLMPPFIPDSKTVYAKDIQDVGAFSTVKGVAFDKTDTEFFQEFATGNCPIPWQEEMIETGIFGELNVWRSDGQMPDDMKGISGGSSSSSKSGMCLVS

[3] = molecular target: T2, Beta-adrenergic receptor kinase 1 (Homo sapiens, UniProt P25098); assay: Inhibition of human GRK2 using casein as substrate in presence of [gamma33P]ATP by radiometric hotspot kinase assay
T2 sequence (P25098 whole entry): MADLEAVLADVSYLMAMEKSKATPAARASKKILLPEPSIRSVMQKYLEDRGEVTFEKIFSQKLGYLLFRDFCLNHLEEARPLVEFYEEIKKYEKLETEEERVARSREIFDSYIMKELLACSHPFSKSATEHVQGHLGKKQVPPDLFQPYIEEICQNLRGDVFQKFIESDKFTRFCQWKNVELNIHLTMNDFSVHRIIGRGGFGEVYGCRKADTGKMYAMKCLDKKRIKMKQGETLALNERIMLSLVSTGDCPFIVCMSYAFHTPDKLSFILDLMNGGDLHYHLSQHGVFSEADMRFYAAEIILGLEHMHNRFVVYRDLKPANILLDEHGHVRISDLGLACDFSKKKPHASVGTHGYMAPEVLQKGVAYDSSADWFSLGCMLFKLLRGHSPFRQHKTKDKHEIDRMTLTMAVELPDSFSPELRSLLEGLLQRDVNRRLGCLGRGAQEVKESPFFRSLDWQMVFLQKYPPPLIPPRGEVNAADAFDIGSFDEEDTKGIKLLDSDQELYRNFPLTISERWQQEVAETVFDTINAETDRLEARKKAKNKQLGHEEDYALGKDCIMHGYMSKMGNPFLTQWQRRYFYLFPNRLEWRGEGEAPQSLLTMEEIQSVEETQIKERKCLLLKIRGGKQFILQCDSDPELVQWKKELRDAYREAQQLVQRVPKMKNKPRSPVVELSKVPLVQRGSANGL

[4] = molecular target: T3, G protein-coupled receptor kinase 3 (Homo sapiens, UniProt P35626); assay: Inhibition of human GRK3 using casein as substrate in presence of [gamma33P]ATP by radiometric hotspot kinase assay
T3 sequence (P35626 whole entry): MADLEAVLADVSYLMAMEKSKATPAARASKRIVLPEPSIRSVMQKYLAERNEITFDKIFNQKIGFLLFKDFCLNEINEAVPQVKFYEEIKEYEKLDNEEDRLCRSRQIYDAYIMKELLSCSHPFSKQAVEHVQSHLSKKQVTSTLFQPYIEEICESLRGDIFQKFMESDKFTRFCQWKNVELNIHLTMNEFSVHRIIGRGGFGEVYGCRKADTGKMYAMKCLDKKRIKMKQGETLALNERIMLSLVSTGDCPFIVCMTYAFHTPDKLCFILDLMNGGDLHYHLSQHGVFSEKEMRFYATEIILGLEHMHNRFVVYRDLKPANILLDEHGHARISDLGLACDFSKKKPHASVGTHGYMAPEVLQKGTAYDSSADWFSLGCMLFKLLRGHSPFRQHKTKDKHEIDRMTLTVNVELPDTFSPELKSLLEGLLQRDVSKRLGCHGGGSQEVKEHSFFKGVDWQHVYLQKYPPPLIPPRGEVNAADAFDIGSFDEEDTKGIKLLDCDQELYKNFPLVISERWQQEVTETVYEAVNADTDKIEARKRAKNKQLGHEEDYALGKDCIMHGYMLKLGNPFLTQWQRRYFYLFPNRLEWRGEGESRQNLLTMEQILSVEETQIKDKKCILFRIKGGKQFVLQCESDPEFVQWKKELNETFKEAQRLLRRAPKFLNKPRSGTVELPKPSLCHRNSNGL

[5] = molecular target: G protein-coupled receptor kinase 6 (Homo sapiens, UniProt P43250); assay: Inhibition of human GRK6 using casein as substrate in presence of [gamma33P]ATP by radiometric hotspot kinase assay
Chain of G protein-coupled receptor kinase 6 (P43250 whole entry): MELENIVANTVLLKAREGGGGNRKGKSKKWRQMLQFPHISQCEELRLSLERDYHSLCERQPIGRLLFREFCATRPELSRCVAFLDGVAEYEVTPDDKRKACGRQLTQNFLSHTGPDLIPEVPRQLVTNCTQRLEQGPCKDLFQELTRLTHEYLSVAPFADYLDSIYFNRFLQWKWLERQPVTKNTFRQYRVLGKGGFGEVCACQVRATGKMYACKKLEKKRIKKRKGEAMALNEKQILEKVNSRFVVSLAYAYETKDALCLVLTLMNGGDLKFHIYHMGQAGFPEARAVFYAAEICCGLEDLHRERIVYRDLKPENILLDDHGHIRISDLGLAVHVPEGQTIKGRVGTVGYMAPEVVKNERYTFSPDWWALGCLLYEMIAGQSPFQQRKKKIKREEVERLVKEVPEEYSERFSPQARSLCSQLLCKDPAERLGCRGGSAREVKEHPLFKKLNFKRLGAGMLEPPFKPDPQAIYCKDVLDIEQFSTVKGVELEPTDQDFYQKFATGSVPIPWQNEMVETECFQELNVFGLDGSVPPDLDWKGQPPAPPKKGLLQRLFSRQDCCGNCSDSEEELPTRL

Rhodopsin kinase GRK7 = molecular target: T4, Rhodopsin kinase GRK7 (Homo sapiens, UniProt Q8WTQ7); assay: Inhibition of recombinant full length human GRK7 using casein as substrate incubated for 40 mins in presence of [gamma-33ATP] by scintillation counting based radiometry assay
T4 sequence (Q8WTQ7 whole entry): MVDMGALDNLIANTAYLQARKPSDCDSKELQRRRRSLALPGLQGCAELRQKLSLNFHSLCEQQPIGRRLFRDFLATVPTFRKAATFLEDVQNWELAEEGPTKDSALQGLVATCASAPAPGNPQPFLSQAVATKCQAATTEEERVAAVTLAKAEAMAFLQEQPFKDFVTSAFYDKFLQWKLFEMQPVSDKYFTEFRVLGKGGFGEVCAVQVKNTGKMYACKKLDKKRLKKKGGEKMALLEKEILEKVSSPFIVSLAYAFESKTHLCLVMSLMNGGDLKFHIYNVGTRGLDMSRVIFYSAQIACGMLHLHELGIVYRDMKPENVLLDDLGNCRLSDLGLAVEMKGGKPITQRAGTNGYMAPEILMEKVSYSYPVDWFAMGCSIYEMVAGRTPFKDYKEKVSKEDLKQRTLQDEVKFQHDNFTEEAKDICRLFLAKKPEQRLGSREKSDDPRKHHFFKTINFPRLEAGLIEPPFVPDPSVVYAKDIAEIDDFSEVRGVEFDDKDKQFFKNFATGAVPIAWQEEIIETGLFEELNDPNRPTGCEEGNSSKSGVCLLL

CCc1cc(Nc2nc(NCc3ccc(Cl)cc3OC)nc3cccc(OC)c23)n[nH]1
IC50 [1]: 720 nM | IC50 [2]: 820 nM | IC50 (Rhodopsin kinase GRK1): 52 nM | IC50 [3]: > 10000 nM | IC50 [4]: > 10000 nM | IC50 [5]: 3.8 nM | IC50 (Rhodopsin kinase GRK7): 6.4 nM
